The test system of the experiment is near cognate start codon initiation in HEK293T cells. Briefly: Firefly luciferase reporter with AUG or near cognate start codons. The conditions noted are these: 5 μM, 16 h. Type of experiment: cell-based, human. As to the method: FIGS. 4A-L: The effect eIF1-eIF4G1 inhibition by i14G1-10 or i14G1-12 on global translation is linked to start codon stringency. (4A) HEK293T cells were treated with DMSO, i14G1-10 (20 μM), and i14G-20 (10 μM) for 3 h and then ribosome foot printing libraries were prepared, sequenced and analyzed as described in the scheme. The presented graphs show meta-gene analysis of the distribution of normalized reads in the coding region (CDS) and 5′UTR of all analyzed genes in DMSO (black), i14G1-10 (blue), and i14G1-12 (red). […] (4F) The translation efficiency of eIF1 in DMSO, i14G1-10 and i14G1-12 samples calculated from the Ribo-seq data. […] (4J) Scatter plots showing the translation efficiencies correlations (R2 >0.9) of all analyzed genes between the two independent replicate experiments with DMSO (vehicle control) (top), i14G1-10 (middle), and i14G1-12 (bottom). (4K) Scatter plots showing the translation efficiencies correlations between 5′UTR and CDS (Pearson's r >0.5) of all analyzed genes of two independent replicate experiments with i14G1-10 (left) and i14G1-12 (right).
Reporter assays. […] The luminescence was measured on Turner Biosystems Luminometer.
Next, the sequence context of the translation initiation site (TIS) in the ribosome footprints of the 5′UTR in DMSO, i14G1-10 or i14G1-12 samples was determined. To assign the 5′UTR TISs, the Hrr+CHX reads were used (see Materials and Methods). […]
(Reporter assays use an easily measured gene product as a stand-in for the process of interest.)

Turning to `O=C(/C=C/Sc1ccc(C(F)(F)F)cn1)c1ccccc1` [i14G1-10], the “near cognate start codon reporter activities relative to AUG” value was “significantly enhanced the activities of ACG, CUG, GUG, and UUG relative to AUG”.

In the case of `Cn1ccnc1S/C(=C/C=C(C#N)C#N)c1ccc(Cl)cc1` [i14G1-12], the “near cognate start codon reporter activities relative to AUG” value is “significantly enhanced the activities of ACG, CUG, GUG, and UUG relative to AUG”.
